Consider 63 compounds from patent US11873291B2, “Quinoline cGAS antagonist compounds” (ImmuneSensor Therapeutics, Inc., priority 2020, dated 2024).

SMILES strings stand for the structures.

The target of one experiment is T1, recombinant human cGAS (aa147-522) (Homo sapiens, UniProt Q8N884).
T1 construct: recombinant human cGAS (aa147-522); His6-SUMO (cleaved yes); made in house; host or cells: E. coli BL21/pLys
T1 sequence (Q8N884 147-522): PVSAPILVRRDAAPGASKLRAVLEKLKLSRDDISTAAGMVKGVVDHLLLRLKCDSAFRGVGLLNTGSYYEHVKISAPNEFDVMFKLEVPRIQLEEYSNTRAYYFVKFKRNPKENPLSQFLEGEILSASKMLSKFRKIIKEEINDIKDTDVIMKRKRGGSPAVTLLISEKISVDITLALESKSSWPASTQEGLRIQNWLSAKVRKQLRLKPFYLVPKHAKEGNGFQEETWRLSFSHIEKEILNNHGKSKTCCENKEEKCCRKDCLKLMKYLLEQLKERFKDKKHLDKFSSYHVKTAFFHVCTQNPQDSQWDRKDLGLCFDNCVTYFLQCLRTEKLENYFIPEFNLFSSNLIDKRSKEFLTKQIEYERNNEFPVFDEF
Put plainly: In vitro inhibition assay of cGAS activity (ATP consumption, KinaseGlo Max). Type of experiment: biochemical. Conditions: Table 2, read-out: cGAS Inhibition Results IC50. The method in brief:
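De-tagged recombinant human cGAS (aa147-522, 1.5 μg/mL) was incubated 20 min at 37 °C with herring testis DNA, 6.6 μM ATP and 0.1 mM GTP in Tris pH 7.5/MgCl2 buffer plus serial compound dilutions. Remaining ATP was read by KinaseGlo Max luminescence, and IC50 was fitted from % ATP consumption versus log concentration.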
As to `COC(=O)[C@@H]1C[C@@H](O)CN1c1cc(-c2cn[nH]c2)c2ccc(Cl)c(Cl)c2n1` [I-434], the IC50 is 2000 to 30000 nM.

Regarding `NC(=O)NC1CCCN(c2cc(-n3ccnc3)c3ccc(Cl)cc3n2)C1` (stereo not drawn) [I-104, 1-(1-(7-chloro-4-(1H-imidazol-1-yl)quinolin-2-yl)piperidin-3-yl)urea], the IC50 was 2000 to 30000 nM.

As for `NS(=O)(=O)CCNc1ccc2ccc(Cl)c(Cl)c2n1` [I-296], the IC50 is over 30000 nM.

For `O=C(O)CCNC(=O)[C@@H]1CCCN1c1cc(-n2ccnc2)c2ccc(Cl)c(Cl)c2n1` [I-324], the IC50 is under 2000 nM.

For `Cc1cc(N2CCS(=O)(=O)CC2)c2ccc(Cl)c(Cl)c2n1` [I-303], the IC50 was over 30000 nM.

As for `OCCCc1cc(-c2cn[nH]c2)c2ccc(Cl)c(Cl)c2n1` [I-271, 3-(7,8-dichloro-4-(1H-pyrazol-4-yl)quinolin-2-yl)propan-1-ol], the IC50 was 2000 to 30000 nM.

Take `O=C(O)CNC(=O)[C@@H]1CN(c2cc(-c3cn[nH]c3)c3ccc(Cl)c(Cl)c3n2)CCO1` [I-341]: the IC50 was under 2000 nM.

In the case of `O=C(O)CN(CCN1CCOCC1)c1cc(-n2ccnc2)c2ccc(Cl)c(Cl)c2n1` [I-172, N-(7,8-dichloro-4-(1H-imidazol-1-yl)quinoline-2-yl)-N-(2-morpholinoethyl)glycine], the IC50 lay in the range of 2000 to 30000 nM.

As to `O=C(O)[C@@H]1COCCN1c1cc(-c2cn[nH]c2)c2ccc(Cl)c(Cl)c2n1` [I-93], the IC50 is under 2000 nM.

As to `CN1CCN(c2cc(-n3ccnc3)c3ccc(Cl)c(Cl)c3n2)CC1C(=O)O` (stereo not drawn) [I-82, 4-(7,8-Dichloro-4-(1H-imidazol-1-yl)quinolin-2-yl)-1-methylpiperazine-2-carboxylic acid], the IC50 is under 2000 nM.

On to `CC(C)(NC(=O)C[C@@H]1CCCN1c1cc(-n2ccnc2)c2ccc(Cl)c(Cl)c2n1)C(=O)O` [I-387], for which the IC50 is under 2000 nM.

As for `CN(CCC(=O)NCC(=O)O)c1cc(-n2ccnc2)c2ccc(Cl)c(Cl)c2n1` [I-321], the IC50 is under 2000 nM.

On to `NS(=O)(=O)CCNc1cc(-c2cn[nH]c2)nc2ccc(C(F)(F)F)cc12` [I-301], for which the IC50 was over 30000 nM.

Consider `Nc1cc(C(=O)O)cc(-c2cc(-n3ccnc3)c3ccc(Cl)cc3n2)c1` [I-22, 3-amino-5-(7-chloro-4-(1H-imidazol-1-yl)quinolin-2-yl)benzoic acid], for which the IC50 is under 2000 nM.

`O=C(O)C1CCN(c2cc(-n3ccnc3)c3ccc(Cl)cc3n2)C1` (stereo not drawn) [I-445]: the IC50 lay in the range of 2000 to 30000 nM.

`Cc1cc(NC2CCNC2=O)c2ccc(Cl)c(Cl)c2n1` (stereo not drawn) [I-315]: the IC50 is over 30000 nM.

On to `Brc1ccc2c(-n3ccnc3)cc(-c3ccncc3)nc2c1` [I-383], for which the IC50 was over 30000 nM.

In the case of `CN(CCC(=O)NCC(N)=O)c1cc(-c2cn[nH]c2)c2ccc(Cl)c(Cl)c2n1` [I-195], the IC50 was under 2000 nM.

Turning to `OCC(CO)Nc1cc(-n2ccnc2)c2ccc(Cl)c(Cl)c2n1` [I-249], the IC50 is under 2000 nM.

Consider `COC(=O)c1cccc(-c2cc(-n3ccnc3)c3ccc(Cl)cc3n2)c1` [I-5], for which the IC50 was in the range of 2000 to 30000 nM.

`O=C(O)C[C@@H](Nc1cc(-n2ccnc2)c2ccc(Cl)c(Cl)c2n1)c1ccccc1` [I-189]: the IC50 is 2000 to 30000 nM.

Regarding `O=C(O)CNc1cc(-c2cn[nH]c2)nc2c(Cl)cc(Cl)cc12` [I-288], the IC50 was under 2000 nM.

Consider `CN(C)C(=O)[C@@H]1CCCN1c1cc(-n2ccnc2)c2ccc(Cl)c(Cl)c2n1` [I-453], for which the IC50 was over 30000 nM.

As to `O=C(O)c1cccc(-c2cc(-n3ccnc3)c3ccc(C(F)(F)F)cc3n2)c1` [I-49, 3-(4-(1H-imidazol-1-yl)-7-(trifluoromethyl)quinolin-2-yl)benzoic acid], the IC50 is over 30000 nM.

For `O=C(O)CNc1cc(-c2cn[nH]c2)nc2cc(Cl)cc(Cl)c12` [I-300], the IC50 is over 30000 nM.

Turning to `CC(C)(C)O[C@@H]1C[C@@H](C(=O)O)N(c2cc(-c3cn[nH]c3)c3ccc(Cl)c(Cl)c3n2)C1` [I-437], the IC50 was under 2000 nM.

In the case of `CCNC(=O)[C@@H]1CCCN1c1cc(-n2ccnc2)c2ccc(Cl)c(Cl)c2n1` [I-451], the IC50 lay in the range of 2000 to 30000 nM.

For the compound `Cc1c(Cl)ccc2c(-n3ccnc3)ccnc12` [I-421, 7-chloro-4-(1H-imidazol-1-yl)-8-methylquinoline], the IC50 lay in the range of 2000 to 30000 nM.

For `O=S(=O)(O)C1CCCN(c2cc(-n3ccnc3)c3ccc(Cl)c(Cl)c3n2)C1` (stereo not drawn) [I-115], the IC50 was under 2000 nM.

Take `N#Cc1cn(-c2cc(-c3ccccc3)nc3cc(Cl)ccc23)cn1` [I-62]: the half-maximal inhibitory concentration (IC50) was over 30000 nM.

As for `NC[C@@H]1CCCN1c1cc(-n2ccnc2)c2ccc(Cl)c(Cl)c2n1` [I-153, (S)-(1-(7,8-dichloro-4-(1H-imidazol-1-yl)quinolin-2-yl)pyrrolidin-2-yl)methanamine], the IC50 was 2000 to 30000 nM.

As for `Cc1nccn1-c1ccnc2ccccc12` [I-411], the IC50 is over 30000 nM.

For the compound `O=C(O)CCNc1cc(-n2ccnc2)c2ccc(Cl)cc2n1` [I-182], the IC50 lay within 2000 to 30000 nM.

Take `COc1cccc(-c2cc(-n3ccnc3)c3ccc(Br)cc3n2)c1` [I-382]: the IC50 was 2000 to 30000 nM.

Take `COc1c(Br)ccc2c(-n3ccnc3)cc(-c3ccccc3)nc12` [I-54, 7-bromo-4-(1H-imidazol-1-yl)-8-methoxy-2-phenylquinoline]: the IC50 lay within 2000 to 30000 nM.

Consider `Clc1ccc2c(-n3ccnc3)cc(Oc3ccccc3)nc2c1` [I-278], for which the IC50 was in the range of 2000 to 30000 nM.

Regarding `Cc1cc(-c2cn[nH]c2)c2ccc(Cl)c(Cl)c2n1` [I-406, 7,8-dichloro-2-methyl-4-(1H-pyrazol-4-yl)quinoline], the IC50 fell in the range of 2000 to 30000 nM.

On to `CN(CCC(=O)N1CCC[C@H]1C(=O)O)c1cc(-c2cn[nH]c2)c2ccc(Cl)c(Cl)c2n1` [I-389], for which the concentration for half-maximal inhibition (IC50) is under 2000 nM.

Consider `O=C(O)C(Cc1ccc(O)cc1)Nc1cc(-n2ccnc2)c2ccc(Cl)c(Cl)c2n1` (stereo not drawn) [I-169], for which the IC50 is under 2000 nM.

On to `Brc1ccc2c(-n3cncn3)ccnc2c1` [I-418], for which the 50% inhibitory concentration (IC50) is over 30000 nM.

Regarding `CC(=O)OCC(=O)N1CCOC(CNc2cc(-c3cn[nH]c3)c3ccc(Cl)c(Cl)c3n2)C1` (stereo not drawn) [I-400], the IC50 was 2000 to 30000 nM.

Still in this experiment, the particulars now being: Table 3, read-out: cGAS Inhibition Results IC50.
Consider `O=C(O)C1CCCN(C(=O)C[C@@H]2CCCN2c2cc(-n3ccnc3)c3ccc(Cl)c(Cl)c3n2)C1` (stereo partly drawn) [I-530], for which the IC50 was under 2000 nM.

For `O=C(O)c1ccccc1S(=O)(=O)N[C@@H]1C[C@@H](C(=O)O)N(c2cc(-n3ccnc3)c3ccc(Cl)c(Cl)c3n2)C1` [I-509], the half-inhibitory concentration (IC50) was under 2000 nM.

On to `O=C(NC12CC(C(=O)O)(C1)C2)[C@@H]1CCCN1c1cc(-n2ccnc2)c2ccc(Cl)c(Cl)c2n1` [I-551], for which the IC50 was over 30000 nM.

`CC(C)N(CCCOc1ccncc1C(=O)O)c1cc(-n2ccnc2)c2ccc(Cl)c(Cl)c2n1` [I-851]: the IC50 fell in the range of 2000 to 30000 nM.

For the compound `O=C(O)[C@@H]1CC(F)(F)CN1c1cc(-n2ccnc2)c2ccc(Cl)c(Cl)c2n1` [I-520], the IC50 is under 2000 nM.

On to `O=C(O)[C@@H]1C[C@@H](OC(=O)N2CCOCC2)CN1c1cc(-n2ccnc2)c2ccc(Cl)c(Cl)c2n1` [I-606, (2S,4R)-1-(7,8-dichloro-4-(1H-imidazol-1-yl)quinolin-2-yl)-4-((morpholine-4-carbonyl)oxy)pyrrolidine-2-carboxylic acid], for which the IC50 was 2000 to 30000 nM.

Consider `O=C(O)C12CC1CCN2c1cc(-n2ccnc2)c2ccc(Cl)c(Cl)c2n1` (stereo not drawn) [I-505], for which the IC50 was in the range of 2000 to 30000 nM.

`OC1CC2CCC(C1)N2c1cc(-n2ccnc2)c2ccc(Cl)c(Cl)c2n1` (stereo not drawn) [I-489]: the IC50 was under 2000 nM.

With `O=C(O)Cc1csc(CNc2cc(-n3ccnc3)c3ccc(Cl)c(Cl)c3n2)n1` [I-881], the IC50 was under 2000 nM.

For `O=C(NS(=O)(=O)C(F)F)[C@@H]1CCCN1c1cc(-n2ccnc2)c2ccc(Cl)c(Cl)c2n1` [I-545], the IC50 was under 2000 nM.

Consider `N#C[C@@H]1CCCN1c1cc(-n2ccnc2)c2ccc(Cl)c(Cl)c2n1` [I-495], for which the IC50 is under 2000 nM.

Consider `O=C(C[C@@H]1CCCN1c1cc(-n2ccnc2)c2ccc(Cl)c(Cl)c2n1)NC1CCCNC1=O` (stereo partly drawn) [I-544], for which the IC50 was 2000 to 30000 nM.

Regarding `CC1(C)CCN(c2cc(-n3ccnc3)c3ccc(Cl)c(Cl)c3n2)C1C(=O)O` (stereo not drawn) [I-483], the IC50 was 2000 to 30000 nM.

`OC([C@@H]1CCCN1c1cc(-n2ccnc2)c2ccc(Cl)c(Cl)c2n1)(C(F)(F)F)C(F)(F)F` [I-656, (S)-2-(1-(7,8-dichloro-4-(1H-imidazol-1-yl)quinolin-2-yl)pyrrolidin-2-yl)-1,1,1,3,3,3-hexafluoropropan-2-ol]: the IC50 is over 30000 nM.

As to `O=C(O)CCCCCOC[C@@H]1CCCN1c1cc(-n2ccnc2)c2ccc(Cl)c(Cl)c2n1` [I-675, (S)-6-((1-(7,8-dichloro-4-(1H-imidazol-1-yl)quinolin-2-yl)pyrrolidin-2-yl)methoxy)hexanoic acid], the 50% inhibitory concentration (IC50) was under 2000 nM.

`O=C(O)C1CCN(C(=O)C[C@@H]2CCCN2c2cc(-n3ccnc3)c3ccc(Cl)c(Cl)c3n2)C1` (stereo partly drawn) [I-524]: the IC50 was under 2000 nM.

Consider `O=C(O)C#CC[C@@H]1CCCN1c1cc(-n2ccnc2)c2ccc(Cl)c(Cl)c2n1` [I-819, (S)-4-(1-(7,8-dichloro-4-(1H-imidazol-1-yl)quinolin-2-yl)pyrrolidin-2-yl)but-2-ynoic acid], for which the IC50 was under 2000 nM.

For `O=c1nc([C@@H]2CCCN2c2cc(-n3ccnc3)c3ccc(Cl)c(Cl)c3n2)o[nH]1` [I-605, (S)-5-(1-(7,8-dichloro-4-(1H-imidazol-1-yl)quinolin-2-yl)pyrrolidin-2-yl)-1,2,4-oxadiazol-3(2H)-one], the IC50 is over 30000 nM.

For `O=C(O)C12CC(CN1c1cc(-n3ccnc3)c3ccc(Cl)c(Cl)c3n1)C2` [I-474], the IC50 was 2000 to 30000 nM.

`COC(=O)C12CC(CN1c1cc(-n3ccnc3)c3ccc(Cl)c(Cl)c3n1)C2` [I-579]: the half-inhibitory concentration (IC50) is over 30000 nM.

`O=C(NO)[C@@H]1[C@@H](O)CCN1c1cc(-n2ccnc2)c2ccc(Cl)c(Cl)c2n1` [I-558]: the IC50 is under 2000 nM.

Regarding `O=C1NC(=O)[C@H](CS(=O)(=O)NC[C@@H]2CCCN2c2cc(-n3ccnc3)c3ccc(Cl)c(Cl)c3n2)N1` [I-637], the 50% inhibitory concentration (IC50) was under 2000 nM.
